One data set relates to MDA-MB-436 cells. The data set can be described thus: Cell proliferation inhibition assay (CCK8). Conditions: Homo sapiens, 72 hours. Format: cell-based.
A short description of data set [1]: Pharmacokinetics assay in SD rats (LC/MS/MS plasma concentration). As to conditions: 15 mg/kg; for AUC / half-life / MRT / Cmax / bioavailability: both sexes, rat, plasma; for AUC: read-out: Area Under Curve AUC; for half-life: read-out: Half-Life t1/2 (converted); for MRT: read-out: Mean Residence Time MRT; for Cmax: read-out: Plasma Conc. Cmax; for bioavailability: po. Format: in vivo. The method, then:
The pharmacokinetic behavior of the compounds of the present invention was studied and evaluated in rats.
24 Healthy adult SD rats, male and female in half, were purchased from SINO-BRITSH SIPPR/BK LAB. ANIMAL LTD., CO, Certificate No.: SCXK (Shanghai) 2003-0002.
The intragastrical administration group: the right amount of tested compounds were weighed and dissolved in 0.5 mL of DMSO, diluted with physiological saline to 10 mL and prepared to 1.5 mg/mL.
The intravenous injection administration group: the right amount of tested compounds were weighed and added into […].
After an overnight fast, 24 healthy adult SD rats, male and female in half, were administered intragastrically at a dose of 15.0 mg/kg and an administration volume of 10 mL/kg.
The intragastrical administration group: blood samples (0.2 mL) were taken from orbital sinus at pre administration and at 0.25 hour, 0.5 hour, 1.0 hour, 1.5 hours, 2.0 hours, 3.0 hours, 4.0 hours, 6.0 hours, 7.0 hours, 9.0 hours, 12.0 hours and 24.0 hours post administration, stored in heparinized tubes and centrifuged for 20 minutes at 3,500 rpm to separate plasma. The plasma samples were stored at −20° C. The rats were fed at 2 hours after administration.
The intravenous injection administration group: blood samples (0.2 mL) were taken from orbital sinus at pre administration and at 2 minutes, 15 minutes, 0.5 hour, 1.0 hour, 2.0 hours, 3.0 hours, 4.0 hours, 6.0 hours, 8.0 hours, 12.0 hours and 24.0 hours post administration, stored in heparinized tubes and centrifuged for 20 minutes at 3,500 rpm to separate plasma. The plasma samples were stored at −20° C.
20 μL of rat blank plasmas taken at various time points after administration were added with 50 μL of internal standard solution and 140 μL of methanol and mixed for 3 minutes by a vortexer. The mixture was centrifuged for 10 minutes at 13,500 rpm. 20 μL of the supernatant was analyzed by LC-MS/MS. The main pharmacokinetic parameters were calculated by software DAS 2.0.

Data set [2] has as its system human colon carcinoma SW620. In words: Antitumor effect with temozolomide on SW620 transplanted tumors in nude mice. Format: in vivo. Conditions: colon carcinoma SW620 in BALB/cA-nude mice; 1 mg/kg oral gavage + TMZ 50 mg/kg oral gavage; day 44. As for the experimental part: The therapeutic effect of the compounds of the present invention administered in combination with temozolomide (TMZ) on transplanted tumors of human colon carcinoma SW620 or human breast cancer cells MX-1 in nude mice was evaluated by using BALB/cA-nude mice as test animals.
BALB/cA-nude mice, SPF, 16-20 g, female( ), were purchased from SINO-BRITSH SIPPR/BK LAB. ANIMAL LTD., CO. Certificate No.: SCXK(Shanghai) 2008-0016.
4.2 The right rib of the nude mice was subcutaneously inoculated with colon carcinoma cells SW620. After tumors grew to 339±132 mm^3, mice were randomly divided into teams (d0).
The volume of tumors and the weight of the mice were measured and recorded for 2 to 3 times per week.
The volume of tumor (V) was calculated by the follow equation: V=½×a×b^2 wherein: a, b represents length and width respectively. The antitumor rate(%)=(C−T)/C(%) wherein: T, C represents the tumor volume of the experimental group (tested compounds) and blank control group at the end of the experiment respectively. 5. Dosage, Dosage Regimens and the Results

Like-named read-outs stand apart in the source and are kept apart here.

Compound `CN(C)C(=O)c1nc(C(F)(F)F)n2c1CN(C(=O)c1cc(Cc3n[nH]c(=O)c4ccccc34)ccc1F)CC2` [Example 22, 7-[2-fluoro-5-[(4-oxo-3H-phthalazin-1-yl)methyl]benzoyl]-N,N-dimethyl-3-(trifluoromethyl)-6,8-dihydro-5H-imidazo[1,5-a]pyrazine-1-carboxamide] registered an IC50 in the data set with MDA-MB-436 cells of 0.65 µM.

In the data set with MDA-MB-436 cells, `O=C(c1cc(Cc2n[nH]c(=O)c3ccccc23)ccc1F)N1CCn2cnnc2C1` [Example 17, 4-[[3-(6,8-dihydro-5H-[1,2,4]triazolo[4,3-a]pyrazine-7-carbonyl)-4-fluoro-phenyl]methyl]-2H-phthalazin-1-one] came in with a concentration for half-maximal inhibition (IC50) of 0.061 µM. This IC50 is about 11-fold lower than that of the compound before.

On to `O=C(c1cccc(Cc2n[nH]c(=O)c3ccccc23)c1)N1CCn2c(nnc2C(F)(F)F)C1` [Example 15, 4-[[3-[3-(trifluoromethyl)-6,8-dihydro-5H-[1,2,4]triazolo[4,3-a]pyrazine-7-carbonyl]phenyl]methyl]-2H-phthalazin-1-one], for which the IC50 with MDA-MB-436 cells was 0.0009 µM.

As to `NC(=O)c1nc(C(F)(F)F)n2c1CN(C(=O)c1cc(Cc3n[nH]c(=O)c4ccccc34)ccc1F)CC2` [Example 10, 7-[2-fluoro-5-[(4-oxo-3H-phthalazin-1-yl)methyl]benzoyl]-3-(trifluoromethyl)-6,8-dihydro-5H-imidazo[1,5-a]pyrazine-1-carboxamide], in the data set with MDA-MB-436 cells, the half-maximal inhibitory concentration (IC50) was determined as 0.14 µM.

`CNC(=O)c1nc(C(F)(F)F)n2c1CN(C(=O)c1cccc(Cc3n[nH]c(=O)c4ccccc34)c1)CC2` [Example 21, N-methyl-7-[3-[(4-oxo-3H-phthalazin-1-yl)methyl]benzoyl]-3-(trifluoromethyl)-6,8-dihydro-5H-imidazo[1,5-a]pyrazine-1-carboxamide] came in with an IC50 in the data set with MDA-MB-436 cells of 0.78 µM.

In the data set on MDA-MB-436 cells, `O=C(NCC1CC1)c1nc(C(F)(F)F)n2c1CN(C(=O)c1cc(Cc3n[nH]c(=O)c4ccccc34)ccc1F)CC2` [Example 24, N-(cyclopropylmethyl)-7-[2-fluoro-5-[(4-oxo-3H-phthalazin-1-yl)methyl]benzoyl]-3-(trifluoromethyl)-6,8-dihydro-5H-imidazo[1,5-a]pyrazine-1-carboxamide] returned an IC50 of 0.072 µM.

On to `CNC(=O)c1nc(C(F)(F)F)n2c1CN(C(=O)c1cc(Cc3n[nH]c(=O)c4ccccc34)ccc1F)CC2` [Example 13, 7-[2-fluoro-5-[(4-oxo-3H-phthalazin-1-yl)methyl]benzoyl]-N-methyl-3-(trifluoromethyl)-6,8-dihydro-5H-imidazo[1,5-a]pyrazine-1-carboxamide], for which the IC50 in the data set on MDA-MB-436 cells was found to be 0.12 µM. In data set [1] (intravenous injection), the area under the curve (AUC) came to 29400 ± 18500 ng·h/mL, the half-life was 5.05 ± 1.34 h, the MRT was found to be 0.89 ± 0.44 h and the “Apparent Distribution Volume Vz/F” value came out at 4.70 ± 2.17 kg⁻¹. In addition, the “Clearance CL/F” value in data set [1] (intravenous injection) was 0.72 ± 0.45 1/11/kg. Besides, in data set [1] (oral gavage), the AUC was 4300 ± 3250 ng·h/mL, the half-life is 6.01 ± 2.27 h, the MRT is 1.87 ± 0.53 h and the Cmax stood at 3070 ± 719 ng/mL. In data set [1] (oral gavage), the “Apparent Distribution Volume Vz/F” value worked out at 49.9 ± 52.9 kg⁻¹ and the “Clearance CL/F” value is 4.47 ± 3.78 1/11/kg. The same compound showed a bioavailability in data set [1] of 16.8%.

With `O=C(c1cc(Cc2n[nH]c(=O)c3ccccc23)ccc1F)N1CCn2c(nnc2C(F)(F)F)C1` [Example 1, 4-[[4-fluoro-3-[3-(trifluoromethyl)-6,8-dihydro-5H-[1,2,4]triazolo[4,3-a]pyrazine-7-carbonyl]phenyl]methyl]-2H-phthalazin-1-one], in data set [2], the “antitumor rate (%)” value is given as “++ (“++”: 60%~80%)”. The midpoint of inhibition in the data set on MDA-MB-436 cells, the IC50, lay at 0.0008 µM.

In turn, `O=C(c1cc(Cc2n[nH]c(=O)c3ccccc23)ccc1F)N1CCn2c(C(F)(F)F)nc(C(=O)N3CCCC3)c2C1` [Example 18, 4-[[4-fluoro-3-[1-(pyrrolidine-1-carbonyl)-3-(trifluoromethyl)-6,8-dihydro-5H-imidazo[1,5-a]pyrazine-7-carbonyl]phenyl]methyl]-2H-phthalazin-1-one] had an IC50 in the data set with MDA-MB-436 cells of 0.61 µM.

In turn, `O=C(c1cc(Cc2n[nH]c(=O)c3ccccc23)ccc1F)N1CCn2cc(C(F)(F)F)nc2C1` [Example 12, 4-[[4-fluoro-3-[2-(trifluoromethyl)-6,8-dihydro-5H-imidazo[1,2-a]pyrazine-7-carbonyl]phenyl]methyl]-2H-phthalazin-1-one] gave an IC50 in the data set with MDA-MB-436 cells of 0.59 µM.

`CCNC(=O)c1nc(C(F)(F)F)n2c1CN(C(=O)c1cc(Cc3n[nH]c(=O)c4ccccc34)ccc1F)CC2` [Example 7, N-ethyl-7-[2-fluoro-5-[(4-oxo-3H-phthalazin-1-yl)methyl]benzoyl]-3-(trifluoromethyl)-6,8-dihydro-5H-imidazo[1,5-a]pyrazine-1-carboxamide] displayed a 50% inhibitory concentration (IC50) in the data set with MDA-MB-436 cells of 0.071 µM. In data set [1] (intravenous injection), the AUC came to 34800 ± 15500 ng·h/mL, the half-life is 0.94 ± 0.26 h, the MRT was 1.25 ± 0.53 h and the “Apparent Distribution Volume Vz/F” value came out at 0.64 ± 0.19 kg⁻¹. For the same compound, the “Clearance CL/F” value in data set [1] (intravenous injection) is 0.52 ± 0.29 1/11/kg. In data set [1] (oral gavage), the AUC was found to be 4500 ± 6670 ng·h/mL, the half-life is 3.87 ± 4.03 h, the mean residence time MRT turned out to be 12.7 ± 15.4 h and the Cmax worked out at 971 ± 1400 ng/mL. In data set [1] (oral gavage), the “Apparent Distribution Volume Vz/F” value was 103 ± 134 kg⁻¹ and the “Clearance CL/F” value is recorded as 15.4 ± 12.4 1/11/kg. The bioavailability in data set [1] came out at 12.9%.

Take `O=C(c1cc(Cc2n[nH]c(=O)c3ccccc23)ccc1F)N1CCn2c(nnc2C(F)F)C1` [Example 23, 4-[[3-[3-(difluoromethyl)-6,8-dihydro-5H-[1,2,4]triazolo[4,3-a]pyrazine-7-carbonyl]-4-fluoro-phenyl]methyl]-2H-phthalazin-1-one]: in the data set on MDA-MB-436 cells, half-maximal inhibition (IC50) was put at 0.002 µM. This counts as single-digit nanomolar.

In the data set on MDA-MB-436 cells, `O=C(c1cc(Cc2n[nH]c(=O)c3ccccc23)ccc1F)N1CCn2c(cnc2C(F)(F)F)C1` [Example 5, 4-[[4-fluoro-3-[3-(trifluoromethyl)-6,8-dihydro-5H-imidazo[1,5-a]pyrazine-7-carbonyl]phenyl]methyl]-2H-phthalazin-1-one] gave a half-inhibitory concentration (IC50) of 0.32 µM. This IC50 lies about 160-fold higher than the previous one.

Compound `O=C(c1cc(Cc2n[nH]c(=O)c3ccccc23)ccc1F)N1CCn2ncnc2C1` [Example 16, 4-[[3-(6,8-dihydro-5H-[1,2,4]triazolo[1,5-a]pyrazine-7-carbonyl)-4-fluoro-phenyl]methyl]-2H-phthalazin-1-one] displayed a half-inhibitory concentration (IC50) with MDA-MB-436 cells of 0.099 µM.

`O=C(c1cc(Cc2n[nH]c(=O)c3ccccc23)ccc1F)N1CCn2c(nnc2CC(F)(F)F)C1` [Example 26, 4-[[4-fluoro-3-[3-(2,2,2-trifluoroethyl)-6,8-dihydro-5H-[1,2,4]triazolo[4,3-a]pyrazine-7-carbonyl]phenyl]methyl]-2H-phthalazin-1-one]: half-maximal inhibition in the data set on MDA-MB-436 cells (IC50) was put at 0.003 µM. Against the preceding compound, the IC50 is about 33-fold lower.

In turn, `COC(=O)c1nc(C(F)(F)F)n2c1CN(C(=O)c1cc(Cc3n[nH]c(=O)c4ccccc34)ccc1F)CC2` [Example 3, methyl 7-[2-fluoro-5-[(4-oxo-3H-phthalazin-1-yl)methyl]benzoyl]-3-(trifluoromethyl)-6,8-dihydro-5H-imidazo[1,5-a]pyrazine-1-carboxylate] yielded a half-maximal inhibitory concentration (IC50) with MDA-MB-436 cells of 0.19 µM.

The term IC50 denotes the concentration needed to halve the response being measured. The AUC is the area under the concentration-time curve, a measure of exposure. The term MRT denotes a mean duration of stay, worked out from the concentration-time curve. For orientation: Cmax means the maximum level reached in the sampled fluid or tissue. One may read the bioavailability as dose-corrected exposure relative to a reference, in per cent. Low values mean poor availability, high ones good availability.

These data come from patent US9273052B2, “Phthalazinone ketone derivative, preparation method thereof, and pharmaceutical use thereof” (Jiangsu Hansoh Pharmaceutical Co., Ltd., priority 2010, dated 2016).
